Assay [1] addresses GSK3β TYR 216 (Homo sapiens (Human), UniProt P49841). As to the kind of experiment: GSK3β p-TYR inhibition assay (western blotting of Jurkat cells). Type of assay: cell-based. As to conditions: compound incubated o/n, western blot, read-out: GSK3b pTYR 216: IC50. How it is done:
(§1) Compounds are screened for their ability to inhibit the phosphorylation of tyrosine (TYR) residues through the use of western blotting of Jurkat cells dosed with the compounds. The phosphorylation of the specific TYR residues tested are GSK3α TYR 279 and GSK3β TYR 216.
(§2) Jurkat cells are seeded at a density of 2×10^5 cells/well in a 12 well dish in starvation media (RPMI+1% FBS+P/S). Following starvation for 16 hours, the compound is dosed into each well at a final DMSO concentration of 0.3% and cells are incubated o/n at 37° C. 5% CO2. The next day, cells are spun down at 1500 rpm, washed with PBS, and lysed in 100 uL Laemli sample buffer with β-mercaptoethanol.
(§3) 15 microliters (uL) of cell lysates are loaded onto a 10% tris-glycine gel and run at 120 v for 2 hours or until dye front runs off of the gel. The protein is then transferred onto a PVDF membrane at 100 v for 60 min. PBST (PBS containing 0.1% Tween 20, such as 1 ml Tween per 1 L of PBS) is then made up and used for all washes and antibody incubations. The blot is blocked in 5% nonfat milk PBST for one hour.
(§4) The primary antibody (GSK-3α/β pTYR 279/216 at 1:1000 dilution Upstate cat #05-413) is then added in 5%-nonfat milk PBST overnight at 4° C. with gentle rocking. The blot is then washed in PBST for 5 min. This is then repeated 4 times. A secondary anti-mouse-HRP conjugated antibody (1:5000 dilution) is added for 60 min in 5% milk PBST. The blot is then washed in PBST for 5 min. This is also repeated 4 times. 3.0 mL of the developing solution (ECL plus Western Blotting Detection System from Amersham/GE cat # RPN2132) is made and then added. The solution is swirled over the blot for ˜30 sec. The blot is then developed using CL-Xposure clear blue X-ray film. GAPDH expression level is used as a loading control, (GAPDH antibody: santa cruz 25-778) at 1:10000 dilution.
(§5) For determination of GSK-3α and GSK-3β pTYR IC50, the density of the respective bands for each protein at specific compound concentration is compared to a no compound DMSO treated control cell sample present on each exposure.

Assay [2] has as its system β-catenin dependent TCF/LEF transcriptional activity. As to the kind of experiment: β-catenin stabilization protocol (β-lactamase reporter assay in Jurkat cells). Type of assay: cell-based. Particulars: Homo sapiens, 460/530 ratio, 50% of the maximum effect, read-out: Beta Catenin IC50. An excerpt: GSK-3 phosphorylation of β-catenin targets it to the proteosome for degradation. Inhibition of GSK-3 results in accumulation of β-catenin in the cytosol of cells which through interaction with the transcription factor TCF/LEF translocates to the nucleus and drives the transcription of Wnt-dependent genes. The assay is designed to determine the level of β-catenin dependent TCF/LEF transcriptional activity in a quantitative manner through the use of a β-lactamase reporter assay in Jurkat cells dosed with a compound.
Jurkat β-catenin cells are starved overnight in assay media (1% FBS, 1× Penstrep, RPMI) in the flask. The next day Jurkat β-catenin cells are seeded in 96 well flat bottom plates at a density of 50,000 cells/well in assay media in a volume of 100 ul. The compound is added to the well at a final DMSO concentration of 0.75% and incubated at 37° C. o/n. The next day, 20 uL of 6× CCF4 dye is added to the wells and incubated at room temperature for 1-2 hours. Plates are read on the Cytofluor 4000 series multiwell plate reader and the 460/530 ratio is determined.

In assay [3] the target is GSK3α TYR 279 (Homo sapiens (Human), UniProt P49840). As to the kind of experiment: GSK-3α p-TYR inhibition assay (western blotting of Jurkat cells). Type of assay: cell-based. Particulars: compound incubated o/n, western blot, read-out: GSK3a pTYR 279: IC50. The method, then: as §1, §2, §3, §4, §5
Chain of GSK3α TYR 279 (P49840 whole entry, the tested form may be a part): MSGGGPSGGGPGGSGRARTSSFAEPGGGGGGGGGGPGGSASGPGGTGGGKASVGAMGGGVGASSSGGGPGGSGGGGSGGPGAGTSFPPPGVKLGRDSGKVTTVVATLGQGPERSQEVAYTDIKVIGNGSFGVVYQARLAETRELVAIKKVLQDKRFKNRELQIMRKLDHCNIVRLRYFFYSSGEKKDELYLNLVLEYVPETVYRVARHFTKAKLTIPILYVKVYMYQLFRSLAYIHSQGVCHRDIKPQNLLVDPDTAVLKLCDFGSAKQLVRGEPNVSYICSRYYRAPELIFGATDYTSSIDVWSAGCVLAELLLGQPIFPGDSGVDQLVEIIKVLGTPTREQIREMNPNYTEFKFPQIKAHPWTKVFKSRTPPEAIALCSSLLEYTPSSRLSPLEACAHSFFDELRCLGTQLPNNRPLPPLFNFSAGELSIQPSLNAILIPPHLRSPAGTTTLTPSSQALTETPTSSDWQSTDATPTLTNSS
Assay [4] deals with GSK-3β (AA 1-420) (Homo sapiens (Human), UniProt P49841). Put plainly: GSK-3 inhibition assay (standard coupled enzyme system). Type of assay: biochemical. Particulars: 20 μM ATP, 300 μM peptide, 20 nM GSK-3β, 30° C. The method, then:
Compounds of the present invention were screened for their ability to inhibit GSK-3β (AA 1-420) activity using a standard coupled enzyme system (Fox et al., Protein Sci. 1998, 7, 2249). Reactions were carried out in a solution containing 100 mM HEPES (pH 7.5), 10 mM MgCl2, 25 mM NaCl, 300 μM NADH, 1 mM DTT and 1.5% DMSO. Final substrate concentrations in the assay were 20 μM ATP (Sigma Chemicals, St Louis, Mo.) and 300 μM peptide (American Peptide, Sunnyvale, Calif.). Reactions were carried out at 30° C. and 20 nM GSK-3β. Final concentrations of the components of the coupled enzyme system were 2.5 mM phosphoenolpyruvate, 300 μM NADH, 30 μg/ml pyruvate kinase and 10 μg/ml lactate dehydrogenase.
An assay stock buffer solution was prepared containing all of the reagents listed above with the exception of ATP and the test compound of the present invention. The assay stock buffer solution (175 μl) was incubated in a 96 well plate with 5 μl of the test compound of the present invention at final concentrations spanning 0.002 μM to 30 μM at 30° C. for 10 min. Typically, a 12-point titration was conducted by preparing serial dilutions (from 10 mM compound stocks) with DMSO of the test compounds of the present invention in daughter plates. The reaction was initiated by the addition of 20 μl of ATP (final concentration 20 μM). Rates of reaction were obtained using a Molecular Devices Spectramax plate reader (Sunnyvale, Calif.) over 10 min at 30° C. The Ki values were determined from the rate data as a function of inhibitor concentration.

Assay [5] deals with amyloid-β peptides. Particulars: mice over-expressing APP, treated over a three-week period; cited from earlier work.
The subject of assay [6] is infarct size in rat brains. Particulars: after transient MCAO in rats; cited from earlier work.

Chain of GSK-3β (AA 1-420) (P49841 whole entry, species assumed, the tested form may be a part): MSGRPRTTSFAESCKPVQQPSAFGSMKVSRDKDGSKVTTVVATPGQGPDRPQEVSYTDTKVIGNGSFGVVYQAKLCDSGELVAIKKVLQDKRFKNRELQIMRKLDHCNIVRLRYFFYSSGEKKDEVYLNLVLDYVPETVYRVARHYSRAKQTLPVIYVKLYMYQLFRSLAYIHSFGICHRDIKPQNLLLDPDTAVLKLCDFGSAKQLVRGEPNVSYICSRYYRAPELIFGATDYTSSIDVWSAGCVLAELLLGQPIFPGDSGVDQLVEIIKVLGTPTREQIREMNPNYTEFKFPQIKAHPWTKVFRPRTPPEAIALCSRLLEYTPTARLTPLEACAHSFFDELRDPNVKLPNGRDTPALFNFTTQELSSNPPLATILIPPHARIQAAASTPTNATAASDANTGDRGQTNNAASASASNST
Chain of GSK3β TYR 216 (P49841 whole entry): as the sequence (P49841 whole entry, species assumed, the tested form may be a part) above

Consider `Cc1cc(Nc2n[nH]c3ncc(F)cc23)nc(C2CCOCC2)n1` [Compound I-17], for which the figures for the IC50 in assay [1], in assay [2] and in assay [3] were 30 nM, 110 nM and 3 nM, respectively.

On to `Cc1nc(C2CCOCC2)nc(Nc2n[nH]c3ncc(F)cc23)c1C` [Compound I-5], for which the IC50 in assay [1] is 800 nM; in assay [2] it was more than 10000 nM; in assay [3], 30 nM.

On to `Cc1cc(Nc2n[nH]c3ncc(F)cc23)nc(C2CCCCC2)n1` [Compound I-10], for which the IC50 in assay [1] stood at 6 nM; in assay [2] it was 400 nM; in assay [3] it was 0.5 nM.

Molecule `CN1CCN(c2cc(Nc3n[nH]c4ccc(F)cc34)nc(C3CCCCC3)n2)CC1` [Compound I-2] returned a Ki in assay [4] of 25 to 500 nM.

As for `Cc1cc(Nc2n[nH]c3ncc(F)cc23)nc(C2CCCC2)n1` [Compound I-9], the IC50 in assay [1] is 48 nM; in assay [2], 1400 nM; in assay [3], 2 nM.

As to `Cc1nc(Nc2n[nH]c3ncc(F)cc23)cc(C2CCC(F)(F)CC2)n1` [Compound I-4], the Ki in assay [4] was less than 25 nM. Moreover, the IC50 in assay [1] turned out to be 20 nM; in assay [2], 210 nM; in assay [3] it was 1 nM.

As to `Cc1cc(Nc2n[nH]c3ccc(F)cc23)nc(C2CCCC2)n1` [Compound I-14], the Ki in assay [4] is less than 25 nM.

For the molecule `[Li]` [lithium], the “decrease in amyloid-β peptide tissue levels” value in assay [5] is more than 50%.

With `Cc1nc(C2CCCCC2)nc(Nc2n[nH]c3ncc(F)cc23)c1C` [Compound I-3], the inhibition constant (Ki) in assay [4] was less than 25 nM. The IC50 was 13 nM in assay [1], 3700 nM in assay [2] and 0.7 nM in assay [3].

Regarding `Cc1cc(Nc2n[nH]c3ncc(F)cc23)nc([C@H]2CCCC[C@@H]2C)n1` [Compound I-18], the IC50 was 300 nM in assay [1], 2400 nM in assay [2] and 1 nM in assay [3].

As to `CC(C)(O)c1cc(Nc2n[nH]c3ncc(F)cc23)nc(C2CCCCC2)n1` [Compound I-21], the IC50 in assay [1] amounted to 20 nM; in assay [2], 1000 nM; in assay [3], 3 nM.

Consider `Cc1cc(Nc2n[nH]c3ccc(F)cc23)nc(C2CCCCC2)n1` [Compound I-23], for which the half-inhibitory concentration (IC50) in assay [1] is 25 nM; in assay [2], 1100 nM; in assay [3], 2 nM.

Molecule `Fc1cnc2[nH]nc(Nc3cc(Cl)nc(C4CCCCC4)n3)c2c1` [Compound I-1] displayed a Ki in assay [4] of less than 25 nM.

`Cc1cc(Nc2n[nH]c3ccc(F)cc23)nc(C2CCOCC2)n1` [Compound I-15] yielded a Ki in assay [4] of 25 to 500 nM. The IC50 worked out at 200 nM in assay [1], 4830 nM in assay [2] and 30 nM in assay [3].

In the case of `Cc1cc(Nc2n[nH]c3ncc(F)cc23)nc(C2CCCCCC2)n1` [Compound I-8], the IC50 was determined as 10 nM in assay [1], 600 nM in assay [2] and 0.3 nM in assay [3].

Regarding “IGF-1: insulin growth factor-1, a known GSK-3 inhibitor”, in assay [6], the “infarct size in rat brains” value is given as “reduced infarct size”.

For the molecule `Cc1cc(Nc2n[nH]c3ncc(F)cc23)nc(C2CC2)n1` [Compound I-20], in assay [4], the Ki is 25 to 500 nM.
